According to patent publication US20110097745A1, “Method For Detecting Microbes” (priority 2007, published 2011):
Converted amounts (≈) assume the structure as drawn.

Experiments:
E. coli (W4110) = assay: overnight disk diffusion test; assay type: cell-based; details: 16 hrs 37 C
Method: (§1) Infecting bacteria (10^6 cells/ml from overnight grown cultures) were spread on LA plates on which 15 mm disks, saturated with various antibiotics, had been placed. After incubating the plates at 37 degrees Celsius for 16 hrs the zone of inhibition was determined for each strain. (Abbreviations used in FIG. 1a and Table 1a: CAP—Chloramphenicol; KAN—Kanamycin; AMP—Ampicillin; CEP—Cephamezin GEN—Gentamycin).

S. typhimirium (772) = assay: overnight disk diffusion test; assay type: cell-based; details: 16 hrs 37 C
Method: as §1

[1] = system: infecting bacteria of urine samples; assay: antibiotics disc inhibition zone, urine samples (standard analysis); assay type: cell-based
Method: A standard analysis (urine culture colony count) was performed to evaluate bacterial load (Table 5a) and antibiotic susceptibility (Table 5b).

[2] = system: infecting bacteria of urine samples; assay: BLT antibiotic susceptibility of urine samples; assay type: cell-based; set-up: BLT (luminescence): unit not given here; details: for BLT (luminescence): 3 hrs 37 C, concentrations given in Table 5; for antibiotic susceptibility of urine samples: key: R = resistant; S = susceptible
Method: Six fresh urine samples were obtained from a local clinic and examined for bacteriuria (>10^5 cells/mL urine) and the antibiotic susceptibility of the infecting bacteriuria. A tube containing a an antibiotic mixture that would eliminate all infecting bacteria but not effect the lux cells (Ampicillin, Kanamycin, Tetracyclin, and Chloramphenicol) served as a control.
Each urine sample was diluted in Medium 1 to yield a final concentration of 3%. 0.1 mL of the diluted samples were then incubated for 3 hrs. at 37 degrees Celsius in a microtitre plate, with or without an antimicrobial substance at the concentrations given in Table 5).
An equal volume of Medium 2 containing 10 ng/ml autoinducer and supplemented with 10^6 of the lux cells was then added to each well. The microtiter plate was then incubated at 28 degrees/Celsius and the luminescence was measured using a plate reader luminometer.
Luminescence was measured in the absence of antibiotics, in the presence of a mixture of antibiotics and in the presence of a single antibiotic from the mixture.
When the ratio of the luminescence measured in the presence of the single antibiotic to that measured in the presence of the antibiotic mix exceeds a second predetermined constant (e.g. 3) then the infecting bacteria are […] to the antibiotic.

S. typhi = assay: microbe, parasite or virus in culture; assay type: cell-based
P. aeroginosa = assay: overnight disk diffusion test; assay type: cell-based; details: disk 10 ppm, 16 hrs 37 C
Method: as §1

S. aureus = assay: BLT (bioluminescence test) MIC determination

| Compound | Antibiotics disc inhibition zone ([1]; urine sample 1, 30 ppm) [mm] | Antibiotics disc inhibition zone ([1]; urine sample 2, 30 ppm) [mm] | Antibiotics disc inhibition zone ([1]; urine sample 3, 30 ppm) [mm] | Antibiotics disc inhibition zone ([1]; urine sample 4, 30 ppm) [mm] | Antibiotics disc inhibition zone ([1]; urine sample 6, 30 ppm) [mm] | antibiotic susceptibility of urine samples ([2]; urine sample 1) | BLT (luminescence) ([2]; urine sample 1, 3% urine) | antibiotic susceptibility of urine samples ([2]; urine sample 2) | BLT (luminescence) ([2]; urine sample 2, 3% urine) | antibiotic susceptibility of urine samples ([2]; urine sample 3) | BLT (luminescence) ([2]; urine sample 3, 3% urine) | antibiotic susceptibility of urine samples ([2]; urine sample 4) | BLT (luminescence) ([2]; urine sample 4, 3% urine) | antibiotic susceptibility of urine samples ([2]; urine sample 5) | BLT (luminescence) ([2]; urine sample 5, 3% urine) | antibiotic susceptibility of urine samples ([2]; urine sample 6) | BLT (luminescence) ([2]; urine sample 6, 3% urine) | further results |
| --- | --- | --- | --- | --- | --- | --- | --- | --- | --- | --- | --- | --- | --- | --- | --- | --- | --- | --- |
| Cc1nnc(SCC2=C(C(=O)O)N3C(=O)[C@@H](NC(=O)Cn4cnnn4)[C@H]3SC2)s1 [Cephamezin] | 7 | 5 | 7 | 5 | 6 | S | 61 | S | 2.3 | S | 21.8 | S | 30 | S | 16 | S | 36.8 | zone of inhibition (E. coli (W4110); disk 30 ppm): 30 mm; zone of inhibition (S. typhimirium (772); disk 30 ppm): 40 mm |
| CC1(C)S[C@@H]2[C@H](NC(=O)Cc3ccccc3)C(=O)N2[C@H]1C(=O)O [Penicillin G] |  |  |  |  |  | R | 0.5 | R | 0.93 | S | 4 | S | 30 | R | 0.417 | S | 11 | Antibiotics disc inhibition zone ([1]; urine sample 1, 40 ppm): 0 mm; Antibiotics disc inhibition zone ([1]; urine sample 2, 40 ppm): 0 mm; Antibiotics disc inhibition zone ([1]; urine sample 3, 40 ppm): 3 mm; Antibiotics disc inhibition zone ([1]; urine sample 4, 40 ppm): 7 mm; Antibiotics disc inhibition zone ([1]; urine sample 6, 40 ppm): 2 mm |
| CC1(C)S[C@@H]2[C@H](NC(=O)[C@H](N)c3ccccc3)C(=O)N2[C@H]1C(=O)O [Ampicillin] |  |  |  |  |  | R | 1 | R | 0.144 | S | 5.11 | S | 30 | R | 0.42 | S | 18 | zone of inhibition (E. coli (W4110); disk 40 ppm): 40 mm; zone of inhibition (S. typhimirium (772); disk 40 ppm): 30 mm; Antibiotics disc inhibition zone ([1]; urine sample 1, 40 ppm): 0 mm; Antibiotics disc inhibition zone ([1]; urine sample 2, 40 ppm): 0 mm; Antibiotics disc inhibition zone ([1]; urine sample 3, 40 ppm): 5 mm; Antibiotics disc inhibition zone ([1]; urine sample 4, 40 ppm): 7 mm; Antibiotics disc inhibition zone ([1]; urine sample 6, 40 ppm): 5 mm |
| CO/N=C(\C(=O)N[C@@H]1C(=O)N2C(C(=O)O)=C(COC(N)=O)CS[C@H]12)c1ccco1 [Cefuroxime] | 6 | 7 | 5 | 5 | 4 | S | 55 | S | 1.36 | S | 2.4 | S | 31 | S | 8.6 | S | 0.76 |  |
| NC[C@H]1O[C@H](O[C@H]2[C@H](O)[C@@H](O[C@H]3O[C@H](CO)[C@@H](O)[C@H](N)[C@H]3O)[C@H](N)C[C@@H]2N)[C@H](O)[C@@H](O)[C@@H]1O [Kanamicin, Kanamycin] | 5 | 5 | 5 | 2 | 1 | S | 64 | S | 42 | S | 49 | S | 30 | S | 16 | S | 38 | zone of inhibition (E. coli (W4110); disk 30 ppm): 25 mm; zone of inhibition (S. typhimirium (772); disk 30 ppm): 20 mm; LU, fold increase over control (no antibiotics added) (S. typhi; 0.117 ppm): 1.4; LU, fold increase over control (no antibiotics added) (S. typhi; 0.234 ppm): 1.62; LU, fold increase over control (no antibiotics added) (S. typhi; 0.468 ppm): 1.49; LU, fold increase over control (no antibiotics added) (S. typhi; 0.937 ppm): 1.82; LU, fold increase over control (no antibiotics added) (S. typhi; 1.875 ppm): 2.3; LU, fold increase over control (no antibiotics added) (S. typhi; 3.75 ppm): 2.45; LU, fold increase over control (no antibiotics added) (S. typhi; 7.5 ppm): 3.13; LU, fold increase over control (no antibiotics added) (S. typhi; 15 ppm): 5.79; LU, fold increase over control (no antibiotics added) (S. typhi; 30 ppm): 6.27; MIC (S. typhi; Salmonella enterica, TYPHI, lowest concentration giving two-fold increase of tester luminescence above control): ~1 mg/L (≈ 2.06 µM) |
| Gentamycin [Gentamicin] |  |  |  |  |  | S | 53 | S | 44 | S | 30 | S | 36 | S | 11.5 | S | 35 | zone of inhibition (E. coli (W4110); disk 10 ppm): 15 mm; zone of inhibition (P. aeroginosa): 20 mm; zone of inhibition (S. typhimirium (772); disk 10 ppm): 20 mm; Antibiotics disc inhibition zone ([1]; urine sample 1, 10 ppm): 4 mm; Antibiotics disc inhibition zone ([1]; urine sample 2, 10 ppm): 5 mm; Antibiotics disc inhibition zone ([1]; urine sample 3, 10 ppm): 6 mm; Antibiotics disc inhibition zone ([1]; urine sample 4, 10 ppm): 2 mm; Antibiotics disc inhibition zone ([1]; urine sample 6, 10 ppm): 5 mm; LU, fold increase over control (no antibiotics added) (S. aureus; 0.39 ppm): 1.2; LU, fold increase over control (no antibiotics added) (S. aureus; 0.781 ppm): 1.2; LU, fold increase over control (no antibiotics added) (S. aureus; 1.562 ppm): 1.3; LU, fold increase over control (no antibiotics added) (S. aureus; 3.125 ppm): 1.5; LU, fold increase over control (no antibiotics added) (S. aureus; 6.25 ppm): 3.1; LU, fold increase over control (no antibiotics added) (S. aureus; 12.5 ppm): 3.6; LU, fold increase over control (no antibiotics added) (S. aureus; 25 ppm): 3.4; LU, fold increase over control (no antibiotics added) (S. aureus; 50 ppm): 6.5; MIC (S. aureus; lowest concentration giving two-fold increase of tester luminescence above control): 3.12-6.2 ppm |
| Cc1onc(-c2ccccc2Cl)c1C(=O)N[C@@H]1C(=O)N2[C@@H]1SC(C)(C)[C@@H]2C(=O)[O-].[Na+] [Orbenil] |  |  |  |  |  | R | 0.8 | R | 0.087 | R | 0.76 | S | 30 | R | 0.63 | R | 0.18 | Antibiotics disc inhibition zone ([1]; urine sample 1, 10 ppm): 0 mm; Antibiotics disc inhibition zone ([1]; urine sample 2, 10 ppm): 0 mm; Antibiotics disc inhibition zone ([1]; urine sample 3, 10 ppm): 0 mm; Antibiotics disc inhibition zone ([1]; urine sample 4, 10 ppm): 6 mm; Antibiotics disc inhibition zone ([1]; urine sample 6, 10 ppm): 0 mm |
